This is an account of results in ChEMBL document CHEMBL3774310, “Discovery of antitumor anthra[2,3-b]furan-3-carboxamides: Optimization of synthesis and evaluation of antitumor properties” (Eur J Med Chem, 2016).

In series [1] the test system is P388. In words: Antitumor activity against mouse P388 cells transplanted in DBA2/BDF1 mouse assessed as mean life span at 50 mg/kg, ip dosed daily for 5 days relative to control. It is filed as functional.
Another series concerns Calf thymus DNA. In words: Binding affinity to calf thymus DNA assessed as dissociation constant by Scatchard plot analysis. It is filed as nucleic-acid assay, Bos taurus.
The next series can be described thus: cells. To be noted: Homo sapiens, HCT-116, 72 h.
In a further series the target is Aurora kinase C (Homo sapiens, UniProt Q9UQB9). In words: Inhibition of full length human N-terminal GST-HIS6-tagged Aurora C expressed in sf9 cells by flashplate based radiometric 33pan-quinase assay.
Chain of Aurora kinase C (Q9UQB9 whole entry): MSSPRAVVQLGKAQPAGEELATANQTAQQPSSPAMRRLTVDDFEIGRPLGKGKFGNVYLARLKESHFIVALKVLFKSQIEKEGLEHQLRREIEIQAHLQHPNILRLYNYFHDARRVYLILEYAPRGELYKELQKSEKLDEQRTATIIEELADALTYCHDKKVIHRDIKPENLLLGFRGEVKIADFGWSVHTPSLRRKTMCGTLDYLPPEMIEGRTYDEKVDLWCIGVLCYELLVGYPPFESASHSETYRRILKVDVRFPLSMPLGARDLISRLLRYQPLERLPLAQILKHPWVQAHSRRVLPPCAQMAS
The target of series [2] is Fibroblast growth factor receptor 1 (Homo sapiens, UniProt P11362, V561M). Put plainly: Inhibition of human FGF-R1 V561M mutant expressed in sf9 cells by flashplate based radiometric 33pan-quinase assay.
Chain of Fibroblast growth factor receptor 1 (P11362 22-822 V561M limits assumed): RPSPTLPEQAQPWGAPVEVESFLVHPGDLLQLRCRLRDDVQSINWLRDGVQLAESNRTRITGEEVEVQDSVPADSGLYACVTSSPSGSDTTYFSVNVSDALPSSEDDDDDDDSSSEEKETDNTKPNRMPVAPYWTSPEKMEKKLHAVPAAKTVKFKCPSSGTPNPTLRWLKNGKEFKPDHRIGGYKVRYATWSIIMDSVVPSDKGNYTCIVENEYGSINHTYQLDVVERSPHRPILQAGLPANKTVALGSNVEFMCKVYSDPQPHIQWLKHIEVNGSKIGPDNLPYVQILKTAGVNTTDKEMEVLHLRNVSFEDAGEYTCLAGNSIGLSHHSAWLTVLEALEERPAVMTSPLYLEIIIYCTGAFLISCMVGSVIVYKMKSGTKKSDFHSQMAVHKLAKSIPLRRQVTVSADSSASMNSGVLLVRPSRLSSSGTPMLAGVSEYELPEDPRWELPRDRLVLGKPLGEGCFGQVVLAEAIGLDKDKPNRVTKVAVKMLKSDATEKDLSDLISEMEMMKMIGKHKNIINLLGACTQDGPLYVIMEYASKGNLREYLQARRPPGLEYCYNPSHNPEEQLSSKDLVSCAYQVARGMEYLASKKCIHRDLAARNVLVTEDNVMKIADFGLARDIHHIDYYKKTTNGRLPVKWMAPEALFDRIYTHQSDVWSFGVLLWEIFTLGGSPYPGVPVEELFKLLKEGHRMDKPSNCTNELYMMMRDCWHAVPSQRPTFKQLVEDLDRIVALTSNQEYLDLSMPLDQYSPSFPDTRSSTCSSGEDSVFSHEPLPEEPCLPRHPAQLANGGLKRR
Series [3] has as its target Serine/threonine-protein kinase pim-3 (Homo sapiens, UniProt Q86V86). In words: Inhibition of full length human N-terminal GST-HIS6-tagged PIM3 expressed in sf9 cells by flashplate based radiometric 33pan-quinase assay.
In the next series the test system is Mus musculus. Put plainly: Toxicity in DBA2/BDF1 mouse transplanted with mouse P388 cells assessed as spleen mass at 50 mg/kg, ip dosed daily for 5 days (reference value: 142 mg). It is filed as organism-based. To be noted: in vivo, 120 h.
The test system of series [4] is P388. Put plainly: Antitumor activity against mouse P388 cells transplanted in DBA2/BDF1 mouse assessed as mean life span at 5 mg/kg, ip dosed daily for 5 days (reference value: 9.6 +/- 0.5 day). It is filed as functional.
Series [5] concerns P388. In words: Antitumor activity against mouse P388 cells transplanted in DBA2/BDF1 mouse assessed as mean life span at 40 mg/kg, ip dosed daily for 5 days (reference value: 9.6 +/- 0.5 day). It is filed as functional.
The test system of series [6] is P388. In words: Antitumor activity against mouse P388 cells transplanted in DBA2/BDF1 mouse assessed as mean life span at 5 mg/kg, ip dosed daily for 5 days relative to control. It is filed as functional.
Series [7] relates to P388. Put plainly: Antitumor activity against mouse P388 cells transplanted in DBA2/BDF1 mouse assessed as mean life span at 10 mg/kg, ip dosed daily for 5 days relative to control. It is filed as functional.

Molecules are shown by their SMILES. Bounds are passed on as bounds.

Description for cells: Antiproliferative activity against human HCT116 cells after 72 hrs by MTT assay

Consider `CS(=O)(=O)O.Cc1oc2c(O)c3c(c(O)c2c1C(=O)N1CC[C@@H](N)C1)C(=O)c1ccccc1C3=O`, for which the Activity with P388 [1] worked out at 178%. Besides, the Kd in the series on Calf thymus DNA was 2 µM. The IC50 in “cells” came to 1.2 µM.
On to `CS(=O)(=O)O.Cc1oc2c(O)c3c(c(O)c2c1C(=O)N1CC[C@H](N)C1)C(=O)c1ccccc1C3=O`, for which the IC50 (against Aurora kinase C; in series [2]; in [3]) was less than 5 µM each time. In addition, the Activity in the series with Mus musculus was determined as 87 mg; in the series on P388 [4] it was 13.4 days; with P388 [5] it was 25.2 days; in the series on P388 [6] it was 140%; in the series on P388 [7] it was 170%.

In general, Kd refers to the equilibrium constant for the complex coming apart. As usually defined, the IC50 is the concentration needed to halve the response being measured. A high value points to weaker potency.
